One may read the IC50 as the point on the concentration scale where inhibition reaches its midpoint.

Where a name gives a salt, the structure may show the parent alone. Read-outs that look alike come from different tables or passages of the source.

Common to all, as to assay type: biochemical
In one test the target is E. feacium DltA (Enterococcus faecium, UniProt Q3XZT7). Briefly: in vitro DltA activity assay (luminescence), E. faecium DltA. On the procedure: (§1) The effect of the compounds of the invention on DltA enzymes has been based on the measure of their inhibition of DltA activity in vitro. To this end, recombinant proteins DltA were expressed and purified after cloning of the genes of S. aureus, E. faecalis, E. faecium and S. agalactiae as described thereafter. The capacity of the compounds of the invention to inhibit DltA enzymatic activity was assessed using the DltA assays as described below:
(§2) The dltA gene was amplified from chromosomal DNA of S. aureus, E. faecalis, E. faecium and S. agalactiae and introduced into E. coli BL21 (Invitrogen, Carlsbad, Calif.) following manufacturer's instruction. Bacteria were grown at 37° C. under aerobic conditions and isopropyl-beta-D-thiogalactopyranoside (IPTG) was added to 0.5-1 mM when OD600 of the bacterial culture had reached 0.5. After a further incubation for 3 hours, cells were harvested by centrifugation. Purification of the recombinant DltA protein was performed by affinity chromatography on nickel-nitrilotriacetic acid (Ni-NTA) column following manufacturer's instructions (Qiagen). Fractions containing recombinant DltA protein were adjusted to 50% glycerol and stored at −20° C. until use.
(§3) The binding potency of the inhibitors against DltA enzyme was assessed by IC50 determination in an in vitro DltA activity assay. The assay buffer “AB” contained 50 mM Hepes pH8.0, 10 mM MgCl2, 50 mM KCl, 0.012% Triton-X100, 10 mM DTT and 100 nM Myelin-basic protein. The following components were added in a white polystyrene Costar plate up to a final volume of 30 μL: 3 μL DMSO, or inhibitor dissolved in DMSO and 27 μL DltA enzyme in AB. After 30 min of pre-incubation at room temperature, 30 μL of Substrates mix in AB were added in each well to a final volume of 60 μL. This reaction mixture was then composed of DltA (produced in house from S. aureus, E. faecalis, E. faecium and S. agalactiae), 0.5 mM D-Alanine (Sigma), 0.5-5 μM ATP (Sigma) and 0.05 u/ml inorganic pyrophosphatase (Sigma) in assay buffer. After typically 1-2 hours of incubation at room temperature (conversion rate around 30%), 30 μL of the revelation mix were added to a final volume of 90 μL, including the following constituents at the respective final concentrations: 10000 u/ml luciferase (Sigma), 30 μM D-luciferin (Sigma), 100 μM N-acetylcysteamine (Aldrich). Luminescence intensity was immediately measured on a Fluostar Optima (BMG) (excitation 360 nm, emission 520 nm) and converted into inhibition percentages. For IC50 determinations (Inhibitory Concentration 50%) the inhibitor was added at 6 to 10 different concentrations and the related inhibitions were fitted to a classical Langmuir equilibrium model using XLFIT (IDBS).
(§4) For compounds interfering with the luminescent signal (quenching), the same experiment without DltA enzyme was performed to allow quenching determination and correction.

For another test, the target named is E. feacalis DltA (Enterococcus faecalis, UniProt Q830N0). Briefly: in vitro DltA activity assay (luminescence), E. faecalis DltA. As for the experimental part:
as §1, §2, §3, §4

The target in another test is S. Agalactiae DltA (Streptococcus agalactiae serotype III (strain NEM316), UniProt Q8VM67). Briefly: in vitro DltA activity assay (luminescence), S. agalactiae DltA. As for the experimental part: as §1, §2, §3, §4
The target in the next test is S. aureus DltA (Staphylococcus aureus (strain NCTC 8325 / PS 47), UniProt Q2FZW6). Briefly: in vitro DltA activity assay (luminescence), S. aureus DltA. As for the experimental part:
as §1, §2, §3, §4

[1] abbreviates: recombinant DltA, 30 min pre-incubation, 0.5 mM D-Alanine, 0.5-5 μM ATP, read-out: E. feacium DltA IC50.
Where [2] appears, read: recombinant DltA, 30 min pre-incubation, 0.5 mM D-Alanine, 0.5-5 μM ATP, read-out: E. feacalis DltA IC50.
[3] abbreviates: recombinant DltA, 30 min pre-incubation, 0.5 mM D-Alanine, 0.5-5 μM ATP, read-out: S. Agalactiae DltA IC50.
Setting [4] is: recombinant DltA, 30 min pre-incubation, 0.5 mM D-Alanine, 0.5-5 μM ATP, read-out: S. aureus DltA IC50.

E. feacalis DltA, sequence (Q830N0 1-506): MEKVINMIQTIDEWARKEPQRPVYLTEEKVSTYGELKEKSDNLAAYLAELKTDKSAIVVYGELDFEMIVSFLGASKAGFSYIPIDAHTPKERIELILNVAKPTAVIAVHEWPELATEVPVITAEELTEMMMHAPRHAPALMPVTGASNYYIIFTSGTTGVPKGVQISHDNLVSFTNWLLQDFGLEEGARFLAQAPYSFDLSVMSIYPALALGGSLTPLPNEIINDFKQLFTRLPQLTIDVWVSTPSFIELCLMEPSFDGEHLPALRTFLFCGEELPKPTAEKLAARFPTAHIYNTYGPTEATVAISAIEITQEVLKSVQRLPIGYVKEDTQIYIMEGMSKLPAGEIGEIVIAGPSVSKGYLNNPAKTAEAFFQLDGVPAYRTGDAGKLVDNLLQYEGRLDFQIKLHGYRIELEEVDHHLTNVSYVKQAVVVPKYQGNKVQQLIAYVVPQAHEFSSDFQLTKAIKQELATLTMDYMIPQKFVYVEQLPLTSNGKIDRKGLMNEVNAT
E. feacium DltA, sequence (Q3XZT7 1-504): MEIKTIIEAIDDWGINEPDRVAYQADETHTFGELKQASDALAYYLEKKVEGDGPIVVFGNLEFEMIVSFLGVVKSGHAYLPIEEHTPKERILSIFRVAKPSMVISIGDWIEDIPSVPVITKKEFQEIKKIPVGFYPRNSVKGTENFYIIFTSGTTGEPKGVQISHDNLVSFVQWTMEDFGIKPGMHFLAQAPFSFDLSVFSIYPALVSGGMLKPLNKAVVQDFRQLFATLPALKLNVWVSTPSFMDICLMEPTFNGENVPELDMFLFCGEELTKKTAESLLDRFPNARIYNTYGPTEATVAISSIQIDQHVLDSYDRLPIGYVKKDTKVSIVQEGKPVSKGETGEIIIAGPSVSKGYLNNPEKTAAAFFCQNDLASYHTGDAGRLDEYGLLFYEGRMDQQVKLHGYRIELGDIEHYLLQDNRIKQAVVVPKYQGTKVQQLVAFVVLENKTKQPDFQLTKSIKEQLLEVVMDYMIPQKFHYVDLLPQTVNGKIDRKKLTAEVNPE

As to `CN(CCN1CCCC1)c1cc(-c2ccc3c(c2)ncn3C2CCCCC2)c2nc[nH]c2c1C(N)=O` [Example 127, 1′-Cyclohexyl-6-[methyl-(2-pyrrolidin-1-yl-ethyl)-amino]-1H,1′H-[4,5′]bibenzimidazolyl-7-carboxamide], the IC50 at E. feacium DltA (setting [1]) is 18 nM; on E. feacalis DltA (setting [2]), 2.9 nM; at S. Agalactiae DltA (setting [3]) it was 140 nM; at S. aureus DltA (setting [4]), 25 nM.
In the case of `CN1CCCC(Oc2cc(-c3cnc4c(c3)CCCO4)c3nc[nH]c3c2C(N)=O)C1` (centres unmarked) [Example 208, 7-(3,4-dihydro-2H-pyrano[2,3-b]pyridin-6-yl)-5-[(1-methyl-3-piperidyl)oxy]-3H-benzimidazole-4-carboxamide methanesulfonic acid salt], the IC50 came out at 280 nM on E. feacium DltA (setting [1]), 61 nM at E. feacalis DltA (setting [2]), 1900 nM at S. Agalactiae DltA (setting [3]) and 230 nM at S. aureus DltA (setting [4]).
For `CN(C)CCN(C)c1cc(-c2ccc3scnc3c2)c2nc[nH]c2c1C(N)=O` [Example 134, 7-Benzothiazol-5-yl-5-[(2-dimethylamino-ethyl)-methyl-amino]-3H-benzimidazole-4-carboxamide], the IC50 on E. feacium DltA (setting [1]) was determined as 120 nM; at E. feacalis DltA (setting [2]), 24 nM; on S. Agalactiae DltA (setting [3]), 1100 nM; at S. aureus DltA (setting [4]), 250 nM.
Taken in the same sequence, the figures for `CN1CCC[C@@H]1COc1cc(-c2cnc3c(c2)CCCO3)c2nc[nH]c2c1C(N)=O` [Example 210, 7-(3,4-dihydro-2H-pyrano[2,3-b]pyridin-6-yl)-5-[[(2R)-1-methylpyrrolidin-2-yl]methoxy]-3H-benzimidazole-4-carboxamide methanesulfonic acid salt] were 36 nM, 5.1 nM, 150 nM and 6.2 nM.
The matching figures for `CN(C)CCOc1cc(-c2cnc3c(c2)CCCO3)c2nc[nH]c2c1C(N)=O` [Example 182, 7-(3,4-Dihydro-2H-pyrano[2,3-b]pyridin-6-yl)-5-(2-dimethylamino-ethoxy)-3H-benzimidazole-4-carboxamide methanesulfonic acid salt]: 59 nM, 4.5 nM, 480 nM and 4.8 nM.
Taken in the same sequence, the figures for `CN(C)CCN(C)c1cc(-c2ccc3c(c2)ncn3C2CCCOC2)c2nc[nH]c2c1C(N)=O` (centres unmarked) [Example 123, 6-[(2-dimethylamino-ethyl)-methyl-amino]-1′-(tetrahydro-pyran-3-yl)-1H,1′H-[4,5′]bibenzimidazolyl-7-carboxamide] were 41 nM, 8.2 nM, 970 nM and 6.9 nM.
Take `c1nc2c(-c3ccc4c(c3)ncn4C3CCCCC3)nc(N3CC4CNCC4C3)cc2[nH]1` (centres unmarked) [Example 24, 4-(1-Cyclohexyl-1H-benzimidazol-5-yl)-6-(hexahydro-pyrrolo[3,4-c]pyrrol-2-yl)-1H-imidazo[4,5-c]pyridine]: the IC50 at E. feacium DltA (setting [1]) came to 3700 nM; on E. feacalis DltA (setting [2]) it was 570 nM; at S. Agalactiae DltA (setting [3]), 5200 nM; on S. aureus DltA (setting [4]) it was 38 nM.
The matching figures for `CN(C)C1CCCN(c2cc(-c3cnc4c(c3)CCCO4)c3nc[nH]c3c2C(N)=O)C1` (centres unmarked) [Example 222, 7-(3,4-dihydro-2H-pyrano[2,3-b]pyridin-6-yl)-5-[3-(dimethylamino)-1-piperidyl]-3H-benzimidazole-4-carboxamide]: 67 nM, 9 nM, 180 nM and 47 nM.
As to `NC(=O)c1c(N2CCC(CCO)C2)cc(-c2ccc3c(c2)ncn3C2CCCCC2)c2nc[nH]c12` (centres unmarked) [Example 77, 1′-Cyclohexyl-6-[3-(2-hydroxy-ethyl)-pyrrolidin-1-yl]-1H,1′H-[4,5′]bibenzimidazolyl-7-carboxamide], the IC50 at E. feacium DltA (setting [1]) is 110 nM; on E. feacalis DltA (setting [2]) it was 41 nM; at S. Agalactiae DltA (setting [3]), 1300 nM; at S. aureus DltA (setting [4]), 77 nM.
Turning to `CN(CCO)c1cc(-c2ccc3c(c2)ncn3C2CCCCC2)c2nc[nH]c2c1C(N)=O` [Example 117, 1′-Cyclohexyl-6-[(2-hydroxy-ethyl)-methyl-amino]-1H,1′H-[4,5′]bibenzimidazolyl-7-carboxamide], the IC50 was 27 nM at E. feacium DltA (setting [1]), 16 nM on E. feacalis DltA (setting [2]), 560 nM at S. Agalactiae DltA (setting [3]) and 23 nM at S. aureus DltA (setting [4]).
For `N#Cc1c(NCCO)cc(-c2ccc3c(c2)ncn3C2CCCCC2)c2nc[nH]c12` [Example 78], the 50% inhibitory concentration (IC50) at E. feacium DltA (setting [1]) was 590 nM; on E. feacalis DltA (setting [2]), 170 nM; on S. Agalactiae DltA (setting [3]), 5400 nM; at S. aureus DltA (setting [4]), 210 nM.
The matching figures for `CN1CCCC1COc1cc(-c2cnc3c(c2)CCCO3)c2nc[nH]c2c1C(N)=O` (centres unmarked) [Example 233, 7-(3,4-dihydro-2H-pyrano[2,3-b]pyridin-6-yl)-5-[(1-methylpyrrolidin-2-yl)methoxy]-3H-benzimidazole-4-carboxamide methanesulfonic acid salt]: 24 nM, 4.7 nM, 130 nM and 6.5 nM.
The matching figures for `CN1CCC[C@@H]1COc1cc(-c2ccc3c(c2)ncn3C2CCCCC2)c2nc[nH]c2c1C(N)=O` [Example 236, 7-(1-cyclohexylbenzimidazol-5-yl)-5-[[(2R)-1-methylpyrrolidin-2-yl]methoxy]-3H-benzimidazole-4-carboxamide methanesulfonic acid salt]: 3.6 nM, 1.4 nM, 91 nM and 0.4 nM.
Regarding `NC(=O)c1c(OC[C@H]2CCCN2)cc(-c2ccc3c(c2)ncn3[C@@H]2CCCC[C@H]2F)c2nc[nH]c12` [Example 214, 7-[1-[(1R,2R)-2-fluorocyclohexyl]benzimidazol-5-yl]-5-[[(2R)-pyrrolidin-2-yl]methoxy]-3H-benzimidazole-4-carboxamide methanesulfonic acid salt], the IC50 was determined as 32 nM against E. feacium DltA, 4 nM on E. feacalis DltA, 390 nM against S. Agalactiae DltA and 4 nM against S. aureus DltA.
With `OCC1(CO)CCN(c2cc(-c3ccc4c(c3)ncn4C3CCCCC3)c3nc[nH]c3c2)CC1` [Example 34, [1-(1′-Cyclohexyl-1H,1′H-[4,5′]bibenzimidazolyl-6-yl)-4-hydroxymethyl-piperidin-4-yl]-methanol], the IC50 on E. feacium DltA (setting [1]) is 170 nM; at E. feacalis DltA (setting [2]), 79 nM; at S. Agalactiae DltA (setting [3]) it was 380 nM; at S. aureus DltA (setting [4]) it was 110 nM.
Taken in the same sequence, the figures for `O=[N+]([O-])c1c(N2CC[C@H](CO)C2)cc(-c2ccc3c(c2)ncn3C2CCCCC2)c2nc[nH]c12` [Example 43, [(S)-1-(1′-Cyclohexyl-7-nitro-1H,1′H-[4,5′]bibenzimidazolyl-6-yl)-pyrrolidin-3-yl]-methanol] were 170 nM, 30 nM, 6300 nM and 85 nM.
Taken in the same sequence, the figures for `OC[C@H]1CCN(c2cc(-c3ccc4c(c3)ncn4C3CCCCC3)c3nc[nH]c3n2)C[C@@H]1O` [Example 2, (3R,4R)-1-[7-(1-Cyclohexyl-1H-benzimidazol-5-yl)-3H-imidazo[4,5-b]pyridin-5-yl]-4-hydroxymethyl-piperidin-3-ol] were 86 nM, 18 nM, 500 nM and 66 nM.

(Values after patent publication US10301305B2 (priority 2014, dated 2019).)
